Measurements reported in article PMC11035515 (Drugs in R&D, 2023).
“And” between values parts separate entries of the source, which are not always exact repeats. Identical values can stand only once. Marks after values point to notes of the source that are not given here.

Columns and labels:
CYP2D6 [1] = target: T1, CYP2D6 (Homo sapiens, UniProt P10635); test: Study 2; details: for CL/F: mean ± SD; for Increase of exposure (AUC) by esmethadone: dextromethorphan + esmethadone 75 mg vs dextromethorphan alone; for Cmax: po
Study 1 = type: in vivo, human; details: single 25-mg oral dose of [14C]-esmethadone
CYP3A4 [2] = test: Study 2
CYP2C19 [3] = target: T2, CYP2C19 (Homo sapiens, UniProt P33261); details: HLM, esmethadone 0.2–200 μM
CYP2B6 [4] = target: T3, CYP2B6 (Homo sapiens, UniProt P20813); test: biochemical
CYP1A2 [5] = test: in vitro; type: in vitro ADME; details: human
[6] = target: human recombinant UGT2B15 (Homo sapiens, UniProt P54855); test: Inhibition of UGT2B15 in Supersomes
CYP2C9 [7] = test: in vitro; type: in vitro ADME; details: human
OCT1 = OCT1 (Homo sapiens, UniProt O15245); test: Uptake transporter assay in transfected HEK293 cells, OCT1 inhibition; type: in vitro ADME
Study 3 = details: human, in vivo, 25 mg
CYP3A4 [8] = test: Study 3
P-glycoprotein (P-gp) = P-glycoprotein (P-gp) (Homo sapiens, UniProt P08183); test: Efflux transporter assay in Caco-2 cells, P-gp inhibition; type: in vitro ADME
UGT1A6 = UGT1A6 (Homo sapiens, UniProt P19224); test: Inhibition of UGT1A6 in human liver microsomes; details: HLM
UGT1A9 = UGT1A9 (Homo sapiens, UniProt O60656); test: Inhibition of UGT1A9 in human liver microsomes
UGT1A4 = UGT1A4 (Homo sapiens, UniProt P22310); test: Inhibition of UGT1A4 in human liver microsomes
CYP2C8 [9] = target: T4, CYP2C8 (Homo sapiens, UniProt P10632); details: HLM, esmethadone 0.2–200 μM
UGT2B7 = UGT2B7 (Homo sapiens, UniProt P16662); test: Inhibition of UGT2B7 in human liver microsomes
CYP2C8 [10] = test: in vitro; type: in vitro ADME; details: human
CYP2D6 [11] = target: T1, CYP2D6; test: Direct inhibition of CYP2D6
[12] = Study 2 treatment-emergent adverse events; details: healthy participants, alone or in combination with dextromethorphan and midazolam
CYP2B6 [13] = test: in vitro; type: in vitro ADME; details: human
CYP2C9 [14] = target: T5, CYP2C9 (Homo sapiens, UniProt P11712); test: biochemical
CYP2C19 [15] = target: T2, CYP2C19; test: biochemical
[16] = Microsomal protein binding by equilibrium dialysis; details: 5 h at 37 °C in HLM
[17] = cited from earlier work
CYP2B6 [18] = target: T3, CYP2B6; details: HLM, esmethadone 0.2–200 μM
CYP2A6 = CYP2A6 (Homo sapiens, UniProt P11509); test: Direct inhibition of CYP2A6 in human liver microsomes
CYP2C9 [19] = target: T5, CYP2C9; details: HLM, esmethadone 0.2–200 μM
UGT1A3 = UGT1A3 (Homo sapiens, UniProt P35503); test: Inhibition of UGT1A3 in human liver microsomes
CYP1A2 [20] = target: CYP1A2 (Homo sapiens, UniProt P05177); details: HLM, esmethadone 0.2–200 μM
CYP3A4 [21] = test: CYP3A4 induction in cryopreserved human hepatocytes; type: in vitro ADME; details: mean of three donors
CYP2C8 [22] = target: T4, CYP2C8; test: biochemical
UGT1A1 = UGT1A1 (Homo sapiens, UniProt P22309); test: Inhibition of UGT1A1 in human liver microsomes
[23] = mRNA levels EC50, donor 1, 72 h
[24] = mRNA levels EC50, donor 2, 72 h
[25] = mRNA levels EC50, donor 3, 72 h
[26] = IC50,u (IC50 unbound), HLM, corrected for fraction unbound
[27] = midazolam 2 mg + esmethadone 25 mg, mean ± SD
[28] = midazolam 2 mg alone, mean ± SD
[29] = midazolam + esmethadone vs midazolam alone

T1 sequence (P10635 whole entry): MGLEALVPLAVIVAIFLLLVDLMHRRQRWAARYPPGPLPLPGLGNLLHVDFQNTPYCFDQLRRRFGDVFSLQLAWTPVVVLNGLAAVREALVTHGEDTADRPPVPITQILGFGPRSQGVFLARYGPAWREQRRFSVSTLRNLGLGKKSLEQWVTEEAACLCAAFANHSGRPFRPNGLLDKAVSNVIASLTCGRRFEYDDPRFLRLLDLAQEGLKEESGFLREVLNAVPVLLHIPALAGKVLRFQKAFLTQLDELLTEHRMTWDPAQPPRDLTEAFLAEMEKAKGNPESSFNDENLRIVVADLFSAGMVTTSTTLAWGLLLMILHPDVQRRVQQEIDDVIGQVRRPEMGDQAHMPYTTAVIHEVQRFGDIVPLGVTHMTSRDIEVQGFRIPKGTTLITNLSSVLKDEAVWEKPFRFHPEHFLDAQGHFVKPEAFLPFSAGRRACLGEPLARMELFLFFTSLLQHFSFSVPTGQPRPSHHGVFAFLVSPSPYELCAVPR
T2 sequence (P33261 whole entry): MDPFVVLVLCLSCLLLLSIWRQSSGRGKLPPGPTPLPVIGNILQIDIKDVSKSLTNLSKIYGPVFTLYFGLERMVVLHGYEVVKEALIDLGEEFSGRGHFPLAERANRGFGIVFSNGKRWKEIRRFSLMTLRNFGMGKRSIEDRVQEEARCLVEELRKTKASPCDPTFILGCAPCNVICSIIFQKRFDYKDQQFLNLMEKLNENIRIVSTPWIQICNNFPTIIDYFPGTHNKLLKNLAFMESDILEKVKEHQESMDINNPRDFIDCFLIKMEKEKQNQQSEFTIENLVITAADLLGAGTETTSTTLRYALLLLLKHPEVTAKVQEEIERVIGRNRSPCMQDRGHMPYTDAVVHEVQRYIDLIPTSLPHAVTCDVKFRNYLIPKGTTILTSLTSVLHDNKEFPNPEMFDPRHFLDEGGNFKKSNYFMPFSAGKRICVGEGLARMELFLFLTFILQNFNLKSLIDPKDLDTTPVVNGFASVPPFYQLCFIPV
T4 sequence (P10632 whole entry): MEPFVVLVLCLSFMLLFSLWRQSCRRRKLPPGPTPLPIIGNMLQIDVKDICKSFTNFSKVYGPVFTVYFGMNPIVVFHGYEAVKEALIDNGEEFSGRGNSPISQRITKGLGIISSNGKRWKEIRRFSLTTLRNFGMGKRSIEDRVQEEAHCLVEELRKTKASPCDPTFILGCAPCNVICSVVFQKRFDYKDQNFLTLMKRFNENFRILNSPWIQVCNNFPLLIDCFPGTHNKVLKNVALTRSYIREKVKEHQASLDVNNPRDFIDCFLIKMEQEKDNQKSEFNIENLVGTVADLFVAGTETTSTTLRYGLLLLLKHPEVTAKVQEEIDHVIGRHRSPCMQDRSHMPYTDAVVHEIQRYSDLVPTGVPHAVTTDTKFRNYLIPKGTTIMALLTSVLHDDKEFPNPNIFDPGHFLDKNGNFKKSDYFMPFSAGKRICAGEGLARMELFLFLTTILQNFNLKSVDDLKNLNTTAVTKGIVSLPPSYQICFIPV
Chain of CYP2A6 (P11509 whole entry): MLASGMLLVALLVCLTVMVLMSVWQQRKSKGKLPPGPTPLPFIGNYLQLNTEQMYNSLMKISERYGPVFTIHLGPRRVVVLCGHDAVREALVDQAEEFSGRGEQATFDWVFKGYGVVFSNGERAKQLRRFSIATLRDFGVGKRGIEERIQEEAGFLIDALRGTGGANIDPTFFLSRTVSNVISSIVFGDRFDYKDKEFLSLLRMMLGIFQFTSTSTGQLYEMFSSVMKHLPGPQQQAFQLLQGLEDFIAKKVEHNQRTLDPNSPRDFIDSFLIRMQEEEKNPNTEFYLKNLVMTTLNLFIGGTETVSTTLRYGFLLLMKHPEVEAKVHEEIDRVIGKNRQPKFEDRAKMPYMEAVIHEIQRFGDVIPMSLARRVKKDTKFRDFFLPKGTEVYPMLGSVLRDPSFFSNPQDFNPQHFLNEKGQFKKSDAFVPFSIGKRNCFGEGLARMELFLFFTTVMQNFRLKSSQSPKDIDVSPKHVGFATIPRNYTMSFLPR
Chain of UGT1A9 (O60656 26-530): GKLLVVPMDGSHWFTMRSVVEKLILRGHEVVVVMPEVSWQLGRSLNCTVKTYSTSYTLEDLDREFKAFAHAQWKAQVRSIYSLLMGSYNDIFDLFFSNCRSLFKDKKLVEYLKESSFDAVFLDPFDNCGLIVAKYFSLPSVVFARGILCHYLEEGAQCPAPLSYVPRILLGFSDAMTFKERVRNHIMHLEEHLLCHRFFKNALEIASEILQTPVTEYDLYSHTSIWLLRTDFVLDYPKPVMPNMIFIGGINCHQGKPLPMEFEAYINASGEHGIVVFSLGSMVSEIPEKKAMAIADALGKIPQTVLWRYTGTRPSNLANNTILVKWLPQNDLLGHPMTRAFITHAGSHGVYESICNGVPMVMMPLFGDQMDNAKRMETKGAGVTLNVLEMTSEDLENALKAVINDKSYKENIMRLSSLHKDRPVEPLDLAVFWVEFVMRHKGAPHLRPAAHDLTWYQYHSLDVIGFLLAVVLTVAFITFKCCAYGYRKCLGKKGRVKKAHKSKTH
Chain of UGT1A4 (P22310 29-534): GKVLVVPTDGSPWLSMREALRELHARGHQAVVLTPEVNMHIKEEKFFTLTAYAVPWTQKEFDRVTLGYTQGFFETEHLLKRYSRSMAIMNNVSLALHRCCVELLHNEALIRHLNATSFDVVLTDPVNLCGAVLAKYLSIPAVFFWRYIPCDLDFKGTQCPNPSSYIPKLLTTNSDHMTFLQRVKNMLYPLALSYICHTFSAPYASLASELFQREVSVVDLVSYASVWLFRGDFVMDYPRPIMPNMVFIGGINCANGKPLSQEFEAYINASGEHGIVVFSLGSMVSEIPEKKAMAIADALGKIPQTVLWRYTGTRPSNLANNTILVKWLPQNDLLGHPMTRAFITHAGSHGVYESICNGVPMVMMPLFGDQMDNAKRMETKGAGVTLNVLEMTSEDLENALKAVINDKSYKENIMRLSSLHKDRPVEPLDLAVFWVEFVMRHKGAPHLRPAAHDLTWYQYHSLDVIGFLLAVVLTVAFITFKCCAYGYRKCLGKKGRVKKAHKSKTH
Chain of UGT1A1 (P22309 26-533): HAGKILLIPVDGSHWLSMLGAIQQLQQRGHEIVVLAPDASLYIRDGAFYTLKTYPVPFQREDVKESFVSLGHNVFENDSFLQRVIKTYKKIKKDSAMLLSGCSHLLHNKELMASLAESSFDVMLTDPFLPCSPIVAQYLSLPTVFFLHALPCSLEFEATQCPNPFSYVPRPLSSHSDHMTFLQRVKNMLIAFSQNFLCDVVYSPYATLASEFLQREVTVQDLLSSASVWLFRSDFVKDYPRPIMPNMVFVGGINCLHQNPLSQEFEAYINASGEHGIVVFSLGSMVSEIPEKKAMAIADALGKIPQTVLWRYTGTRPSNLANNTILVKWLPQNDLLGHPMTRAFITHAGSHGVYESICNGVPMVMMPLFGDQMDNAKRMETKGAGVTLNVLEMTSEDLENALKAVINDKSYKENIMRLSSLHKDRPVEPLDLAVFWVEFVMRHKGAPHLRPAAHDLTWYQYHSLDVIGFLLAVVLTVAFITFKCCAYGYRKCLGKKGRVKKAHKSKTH
Chain of UGT1A3 (P35503 29-534): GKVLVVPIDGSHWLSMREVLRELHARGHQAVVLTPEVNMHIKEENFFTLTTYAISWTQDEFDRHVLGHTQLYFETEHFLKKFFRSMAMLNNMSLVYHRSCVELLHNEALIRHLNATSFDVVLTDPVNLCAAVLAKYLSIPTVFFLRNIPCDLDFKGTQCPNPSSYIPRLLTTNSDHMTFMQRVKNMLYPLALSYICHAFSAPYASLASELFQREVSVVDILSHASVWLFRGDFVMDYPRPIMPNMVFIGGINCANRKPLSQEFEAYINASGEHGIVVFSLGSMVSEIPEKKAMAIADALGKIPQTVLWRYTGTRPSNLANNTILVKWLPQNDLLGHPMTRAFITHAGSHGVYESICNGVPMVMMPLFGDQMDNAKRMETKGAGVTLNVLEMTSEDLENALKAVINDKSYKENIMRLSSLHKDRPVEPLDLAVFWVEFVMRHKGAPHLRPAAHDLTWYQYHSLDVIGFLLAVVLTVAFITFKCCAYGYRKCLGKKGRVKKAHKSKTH
Chain of UGT2B7 (P16662 24-529): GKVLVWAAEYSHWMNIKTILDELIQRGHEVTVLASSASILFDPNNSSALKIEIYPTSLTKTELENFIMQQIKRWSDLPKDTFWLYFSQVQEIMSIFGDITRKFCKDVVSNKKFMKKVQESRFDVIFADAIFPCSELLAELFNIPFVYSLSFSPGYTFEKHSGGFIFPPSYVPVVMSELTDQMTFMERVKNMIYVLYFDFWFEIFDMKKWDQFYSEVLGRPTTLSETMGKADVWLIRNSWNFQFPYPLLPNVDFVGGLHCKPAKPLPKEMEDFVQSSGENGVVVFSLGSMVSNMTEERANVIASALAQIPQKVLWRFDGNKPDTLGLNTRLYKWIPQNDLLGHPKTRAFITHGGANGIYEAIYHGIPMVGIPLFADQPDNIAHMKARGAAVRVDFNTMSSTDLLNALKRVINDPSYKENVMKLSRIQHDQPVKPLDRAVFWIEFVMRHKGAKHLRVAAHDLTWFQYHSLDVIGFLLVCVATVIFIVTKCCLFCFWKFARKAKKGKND
T5 sequence (P11712 whole entry): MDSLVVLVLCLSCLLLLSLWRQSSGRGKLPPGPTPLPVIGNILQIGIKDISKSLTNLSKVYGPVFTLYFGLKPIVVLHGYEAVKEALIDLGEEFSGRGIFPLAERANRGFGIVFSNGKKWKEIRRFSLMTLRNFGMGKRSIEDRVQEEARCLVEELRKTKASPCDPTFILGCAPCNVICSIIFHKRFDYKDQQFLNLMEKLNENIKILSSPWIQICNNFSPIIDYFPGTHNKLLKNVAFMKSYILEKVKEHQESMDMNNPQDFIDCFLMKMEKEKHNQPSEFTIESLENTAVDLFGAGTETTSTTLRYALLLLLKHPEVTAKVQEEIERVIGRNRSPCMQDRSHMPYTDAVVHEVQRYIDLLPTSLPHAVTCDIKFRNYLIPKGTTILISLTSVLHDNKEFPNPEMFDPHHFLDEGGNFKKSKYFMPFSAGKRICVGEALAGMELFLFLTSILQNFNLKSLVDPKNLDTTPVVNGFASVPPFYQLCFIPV

For COc1ccc2c(c1)[C@]13CCCC[C@@H]1[C@H](C2)N(C)CC3 [dextromethorphan], the CL/F (CYP2D6 [1]; dextromethorphan 30 mg + esmethadone 75 mg) was 907 ± 715 L/h, the CL/F (CYP2D6 [1]; dextromethorphan 30 mg alone) was 4560 ± 3280 L/h and the “Increase of exposure (AUC) by esmethadone” value (CYP2D6 [1]) was 2.71 fold. It also gave an AUC(0-inf) (CYP2D6 [1]; human, plasma, oral, 30 mg) of 31.2 ng·h/mL, an AUC(0-t) (CYP2D6 [1]; human, plasma, oral, 30 mg) of 26.6 ng·h/mL and a Tmax (CYP2D6 [1]; human, plasma, oral, 30 mg) of 2.5 h. It also gave a Vd/F (CYP2D6 [1]; human, plasma, oral, 30 mg) of 39000 L, a half-life (CYP2D6 [1]; human, plasma, oral, 30 mg) of 7.15 ± 3.29 h and a Cmax (CYP2D6 [1]; human, plasma, 30 mg) of 2.2 ± 3.8 ng/mL.
In the case of oxy-esmethadone glucuronide, the “Percent of the total plasma radioactivity exposure through 24 h post-dose” value (Study 1) is reported as 0.473%.
In the case of CCC(=O)C(C[C@H](C)N(C)C)(c1ccccc1)c1ccccc1 [esmethadone], the “Effect of esmethadone on CYP3A4 activity” value (CYP3A4 [2]; clinical, esmethadone 25 mg once daily) is reported as “negligible effect”, the “Conclusion (inhibitory activity)” value (CYP2C19 [3]) is reported as “Yes” and the IC50 (CYP2B6 [4]) is reported as greater than 200 µM. The EC50 at 72 h (CYP1A2 [5]; [23]) was 25.7 µM, the EC50 at 72 h (CYP1A2 [5]; [24]) was 3.75 µM and the EC50 at 72 h (CYP1A2 [5]; [25]) was 26.3 µM. For the same compound, the IC50 [6] was 139 µM, the “Conclusion (inhibitory activity)” value ([6]; Supersomes) was “Yes” and the EC50 at 72 h (CYP2C9 [7]; [23]) was 1.05 µM. The EC50 at 72 h (CYP2C9 [7]; [25]) was 18.1 µM, the IC50 (OCT1) was 1.67 µM and the Tmax (Study 3) was 3 h. The “Maximum observed concentration (text, concentration–time profiles)” value (CYP3A4 [8]; esmethadone 25 mg co-administered with cobicistat) was 130 ± 22.5 ng/mL, the “Increase of total exposure (AUC0–inf) by cobicistat” value (CYP3A4 [8]; esmethadone + cobicistat vs alone) was 32% and the AUC(0-inf) (CYP3A4 [8]; human, in vivo, 25 mg) was 4430 ± 1370 ng·h/mL. It also gave an AUC(0-t) (CYP3A4 [8]; human, in vivo, 25 mg) of 4100 ± 1210 ng·h/mL, a Cmax (CYP3A4 [8]; human, in vivo, po, 25 mg) of 131 ± 31.5 ng/mL and an IC50 (P-glycoprotein (P-gp)) of 9.28 µM. For the same compound, the “Conclusion (inhibitory activity)” value (UGT1A6) was “No”, the IC50 (UGT1A9) was greater than 200 µM and the “Conclusion (inhibitory activity)” value (UGT1A9; HLM) was “Yes”. The IC50 (UGT1A4) was greater than 200 µM, the “Conclusion (inhibitory activity)” value (UGT1A4; HLM) was “Yes” and the “Conclusion (inhibitory activity)” value (CYP2C8 [9]) was “Yes”. The “CYP2D6 inhibitor category (FDA guidelines)” value (CYP2D6 [1]; clinical, esmethadone 75 mg loading dose) was “moderate inhibitor of CYP2D6”, the IC50 (UGT2B7) was greater than 200 µM and the “Conclusion (inhibitory activity)” value (UGT2B7; HLM) was “Yes”. For the same compound, the EC50 at 72 h (CYP2C8 [10]; [23]) was 2.85 µM, the EC50 at 72 h (CYP2C8 [10]; [25]) was 5.27 µM and the Type of inhibition (CYP2D6 [11]; HLM) was “mixed (competitive and non-competitive) inhibition”. The “Conclusion (inhibitory activity)” value (CYP2D6 [11]; HLM, esmethadone 0.2–200 μM) was “Yes”, the IC50 (CYP2D6 [11]; IC50, HLM, dextromethorphan O-demethylase) was 9.6 µM and 9.63 µM and the IC50 (CYP2D6 [11]; [26]) was 8.28 µM. For the same compound, the Ki (CYP2D6 [11]; Ki, HLM, five substrate concentrations 2–50 μM) was 2.02 µM, the Ki (CYP2D6 [11]; Ki,u (unbound Ki), HLM, corrected for fraction unbound) was 1.74 µM and the Tolerability [12] was “well tolerated”. For the same compound, the EC50 at 72 h (CYP2B6 [13]; [23]) was 4.3 µM, the EC50 at 72 h (CYP2B6 [13]; [24]) was 5.36 µM and the EC50 at 72 h (CYP2B6 [13]; [25]) was 4.12 µM. The IC50 (CYP2C9 [14]) was greater than 200 µM, the IC50 (CYP2C19 [15]; IC50, HLM) was 174 µM and the IC50 (CYP2C19 [15]; [26]) was 150 µM. For the same compound, the “Stability under equilibrium dialysis testing conditions” value [16] was “stable”, the “Cmax,u, maximal unbound concentration in plasma at steady state” value [17] was 587 nM and the “Conclusion (inhibitory activity)” value (CYP2B6 [18]) was “Yes”. The IC50 (CYP2A6) was greater than 200 µM, the “Conclusion (inhibitory activity)” value (CYP2A6; HLM, esmethadone 0.2–200 μM) was “Yes” and the “Conclusion (inhibitory activity)” value (CYP2C9 [19]) was “Yes”. For the same compound, the IC50 (UGT1A3) was greater than 200 µM, the “Conclusion (inhibitory activity)” value (UGT1A3; HLM) was “Yes” and the “Conclusion (inhibitory activity)” value (CYP1A2 [20]) was “No”. For the same compound, the “Increase of CYP3A4 enzyme activity” value (CYP3A4 [21]) was 5.2 ± 4.8 fold, the “Increase of CYP3A4 mRNA” value (CYP3A4 [21]) was 21.4 ± 1.1 fold and the IC50 (CYP2C8 [22]) was greater than 200 µM. The IC50 (UGT1A1) was greater than 200 µM, the “Conclusion (inhibitory activity)” value (UGT1A1; HLM) was “Yes” and the “Fecal excretion of the component” value (Study 1) was “no fecal excretion”. The “Percent of the total plasma radioactivity exposure through 24 h post-dose” value (Study 1) was 70.4%, the “Radioactivity excreted in urine” value (Study 1) was 53.9 % of the dose and the “Mean exposure (AUC0.5–24) in plasma” value (Study 1; healthy male subjects) was 1200 ng eq. h/g. The “Urinary excretion of the component” value (Study 1; mean across subjects) was 13 % of the dose.
Cc1ncc2n1-c1ccc(Cl)cc1C(c1ccccc1F)=NC2 [midazolam, reference compound] showed an AUC(0-inf) (CYP3A4 [2]; human, in vivo, 2 mg) of 26.8 ng·h/mL, an AUC(0-t) (CYP3A4 [2]; human, in vivo, 2 mg) of 25.5 ng·h/mL and a Tmax (CYP3A4 [2]; human, in vivo, 2 mg) of 0.5 h. It also gave a Vd/F (CYP3A4 [2]; human, in vivo, 2 mg) of 571 ± 182 L, a half-life (CYP3A4 [2]; human, in vivo, 2 mg) of 5.12 ± 1.92 h and a Cmax (CYP3A4 [2]; human, in vivo, po, 2 mg) of 11.5 ng/mL. It also gave a CL/F (CYP3A4 [2]; [27]) of 84.5 ± 27.5 L/h and a CL/F (CYP3A4 [2]; [28]) of 83.8 ± 27.9 L/h.
For OCc1ncc2n1-c1ccc(Cl)cc1C(c1ccccc1F)=NC2 [1′-hydroxymidazolam], the Cmax (CYP3A4 [2]; midazolam 2 mg + esmethadone 25 mg (day 19, after repeated dosing), mean ± SD) was 13,100 ± 4930 pg/mL, the “AUC0–inf” value (CYP3A4 [2]; [27]) was 42,700 ± 15100 h*pg/mL and the “AUC0–t” value (CYP3A4 [2]; [27]) was 41,100 ± 14,500 h*pg/mL. The Tmax (CYP3A4 [2]; midazolam 2 mg + esmethadone 25 mg, median (range)) was 0.925 (0.500–2.00)* h, the “AUC0–inf” value (CYP3A4 [2]; [28]) was 11,600 ± 8260 h*pg/mL and the “AUC0–t” value (CYP3A4 [2]; [28]) was 10,700 ± 7360 h*pg/mL. For the same compound, the Tmax (CYP3A4 [2]; midazolam 2 mg alone, median (range)) was 0.500 (0.500–0.750) h, the Cmax (CYP3A4 [2]; midazolam 2 mg oral alone (day 1), plasma, mean ± SD) was 5.44 ± 3.52 ng/mL and the “Increase of AUC by esmethadone” value (CYP3A4 [2]; [29]) was 3.84 fold and 3.8 fold. For the same compound, the “Increase of Cmax by esmethadone” value (CYP3A4 [2]; [29]) was 2.4 fold.
For CCC(=O)C(C[C@@H](C)N(C)C)(c1ccccc1)c1ccccc1 [levomethadone], the “Time to maximum observed concentration (Tmax)” value ([17]; oral methadone) is listed as 3 h.
For CCC(=O)C(CC(C)N(C)C)(c1ccccc1)c1ccccc1 (centres unmarked) [methadone], the “Higher concentration associated with a single nucleotide polymorphism of P-gp” value [17] is listed as 32.9%, the “Oral bioavailability, inter-subject range” value [17] is listed as 36–100% and the Oral bioavailability ([17]; similar for the two enantiomers) is listed as 70–80%.
For CN1CC[C@@]23CCCC[C@@H]2[C@@H]1Cc1ccc(O)cc13 [dextrorphan], the “Increase of exposure (AUC) by esmethadone” value (CYP2D6 [1]) was 3.11 fold, the AUC(0-inf) (CYP2D6 [1]; human, plasma, oral, 30 mg) was 27.2 ng·h/mL and the AUC(0-t) (CYP2D6 [1]; human, plasma, oral, 30 mg) was 26.3 ng·h/mL. For the same compound, the half-life (CYP2D6 [1]; human, plasma, oral, 30 mg) was 5.64 ± 4.97 h and the Cmax (CYP2D6 [1]; human, plasma, 30 mg) was 4.9 ± 2.62 ng/mL.
